A short description of series [1]: Polymorph screening of solid state drug substances. The following applies: for XRPD results (Dried): stirred 50 °C 72 hours, solids dried; for Visual observation 50° C. / Visual observation RT: target conc. 100 mg/ml; for Comment: stability of initial crystal form (pattern A): polymorph screen over Heptane.
The nature of series [2]: Plasma stability assay, rat plasma. Format: in vitro ADME. Particulars: 37° C., 10 μM.
The nature of series [3]: Solubility determination in oil (cottonseed oil, sesame oil). Particulars: heating temp. 60 °C. Here is the method: A known amount of test substance (˜40 mg) was weighed into the vial, 100 μL of oil was added and heated to 60° C. and then system was slurried to reach equilibrium. […] Extra oil was added into the vial once compound precipitated out and then the system was re-equilibrated at 1000 rpm at room temperature (25° C.). Final concentration was determined by HPLC method as described below in Table 6a and 6b.

The nature of series [4]: Physical characterization of solid state drug substance (PLM, XRPD, DSC, TGA). Particulars: for Thermal Gravimetric Analysis, weight loss: at 120° C., heated from room temperature at 10° C./minute. Format: physicochemical. On the procedure: The analysis of the physical characteristics of drug substances that were in a solid state was conducted using polarized light microscopy (PLM), X-ray powder diffractometer (XRPD) assessment, Differential Scanning calorimetry (DSC) and Thermal Gravimetric Analysis (TGA). For PLM, samples were dispersed in immersion oil and were observed using an ocular lens (10×) and objective lens (20×) under crossed polarizers. For XRPD, samples were run on a diffractometer using the following method: Tube—Cu: K-alpha (λ=1.54179 Å); Generator—Voltage 40 kV, Current 40 mA; Scan scope—3 to 40°; sample rotation speed—15 rpm; scanning rate—10 deg/min. For DSC, ˜1 mg of sample was tested using a crimped aluminum pan and covered by a lid with a hole, heated from room temperature to 300° C. at a speed of 10° C./minute. For TGA, 2-5 mg of sample was placed in an open platinum pan and heated from room temperature to 300° C. at a rate of 10° C./minute.

Setting [5] is: MTBE, Isopropanol, EtOAc, Acetone.

Data on five molecules can be found in patent US10525055B2, “Opioid receptor antagonist prodrugs” (Nirsum Laboratories, Inc., priority 2017, dated 2020).

Molecules are shown by their SMILES.

Take `CCCCCCCCCCCCCCCC(=O)Oc1ccc2c3c1O[C@H]1C(=O)CC[C@@]4(O)C(C2)N(CC2CC2)CC[C@]314` [Compound 55, (4aS,7aR,12bS)-3-(cyclopropylmethyl)-4a-hydroxy-7-oxo-2,3,4,4a,5,6,7,7a-octahydro-1H-4,12-methanobenzofuro[3,2-e]isoquinolin-9-yl palmitate]: in series [1] (Acetone), the “XRPD results (Dried)” value is reported as “Pattern B”, the “Visual observation 50° C.” value is on record as “Clear” and the “Visual observation RT” value is given as “Slurry”. In series [1] (EtOAc), the “XRPD results (Dried)” value is given as “Pattern B”, the “Visual observation 50° C.” value is “Clear” and the “Visual observation RT” value is reported as “Slurry”. In series [1] (Heptane), the “XRPD results (Dried)” value was “Pattern B”, the “Visual observation 50° C.” value is reported as “Clear” and the “Visual observation RT” value is given as “Slurry”. In addition, in series [1] (Isopropanol), the “XRPD results (Dried)” value is reported as “Pattern B”, the “Visual observation 50° C.” value is “Clear” and the “Visual observation RT” value is “Slurry”. Besides, in series [1] (MTBE), the “XRPD results (Dried)” value is given as “Pattern B”, the “Visual observation 50° C.” value is “Clear” and the “Visual observation RT” value is “Clear”. Also, the “Comment: stability of initial crystal form (pattern A)” value (shortened to “Comment: stability”) in series [1] (setting [5]) was “Cannot determine which crystal form”. In series [2], the “% remaining at time point in minutes, 0 min” value is 100%; the “% remaining at time point in minutes, 15 min” value (shortened to “% remaining … 15 min”) was determined as 77.3%; the “% remaining at time point in minutes, 120 min” value (“% remaining … 120 min” below) amounted to 47.2%; the “% remaining at time point in minutes, 480 min” value (shortened to “% remaining … 480 min”) was 27.1%. For the same molecule, in series [2], the “% remaining at time point in minutes, 1440 min” value (“% remaining … 1440 min” for short) was found to be 15.6%. For the same molecule, the “Approximate Solubility (mg/mL) in Excipient: Ethanol” value in series [3] (Ethanol, obs. temp. 40 °C) is listed as >401.1 mg/mL. The “Approximate Solubility (mg/mL) in Excipient: Sesame oil” value (“Approximate Solubility … Sesame oil” for short) in series [3] (obs. temp. 40 °C) is on record as >394.8 mg/mL. Further, in series [4], the “Thermal Gravimetric Analysis, weight loss” value is listed as “Weight loss of 0.2597%”.
`CCCCCCCCCCOC(=O)Oc1ccc2c3c1O[C@H]1C(=O)CC[C@@]4(O)C(C2)N(CC2CC2)CC[C@]314` [Compound 10, (4aS,7aR,12bS)-3-(cyclopropylmethyl)-4a-hydroxy-7-oxo-2,3,4,4a,5,6,7,7a-octahydro-1H-4,12-methanobenzofuro[3,2-e]isoquinolin-9-yl decyl carbonate]: in series [1] (Acetone), the “XRPD results (Dried)” value is listed as “Pattern A”, the “Visual observation 50° C.” value is reported as “Clear” and the “Visual observation RT” value is listed as “Slurry”. For the same molecule, in series [1] (EtOAc), the “XRPD results (Dried)” value was “Pattern A”, the “Visual observation 50° C.” value was “Clear” and the “Visual observation RT” value is listed as “Slurry”. In addition, in series [1] (Heptane), the “XRPD results (Dried)” value is recorded as “Pattern A”, the “Visual observation 50° C.” value was “Slurry” and the “Visual observation RT” value is given as “Slurry”. In series [1] (Isopropanol), the “XRPD results (Dried)” value is given as “Pattern A”, the “Visual observation 50° C.” value is “Clear” and the “Visual observation RT” value is recorded as “Slurry”. For the same molecule, in series [1] (MTBE), the “XRPD results (Dried)” value is on record as “Pattern A”, the “Visual observation 50° C.” value is “Clear” and the “Visual observation RT” value is reported as “Clear”. Further, the “Comment: stability” value in series [1] (setting [5]) is recorded as “stable form. Same form (pattern A)”. For the same molecule, in series [2], the “% remaining at time point in minutes, 0 min” value was found to be 100%; the “% remaining … 15 min” value is on record as 0%; the “% remaining … 120 min” value was determined as 0%; the “% remaining … 480 min” value is 0%. Moreover, the “% remaining … 1440 min” value in series [2] was 0%. Also, in series [4], the “Thermal Gravimetric Analysis, weight loss” value is recorded as “Weight loss of 0.3047%”.
As to `C=C1CC[C@@]2(O)C3Cc4ccc(OC(=O)OCCCCCCCCCCCCCC)c5c4[C@@]2(CCN3CC2CC2)[C@H]1O5` [Compound 31, (4aS,7aS,12bS)-3-(cyclopropylmethyl)-4a-hydroxy-7-methylene-2,3,4,4a,5,6,7,7a-octahydro-1H-4,12-methanobenzofuro[3,2-e]isoquinolin-9-yl tetradecyl carbonate], in series [1] (Acetone), the “XRPD results (Dried)” value is reported as “Pattern A”, the “Visual observation 50° C.” value is on record as “Clear” and the “Visual observation RT” value is “Slurry”. Moreover, in series [1] (EtOAc), the “XRPD results (Dried)” value is “Pattern A”, the “Visual observation 50° C.” value is listed as “Clear” and the “Visual observation RT” value is “Clear”. For the same molecule, in series [1] (Heptane), the “XRPD results (Dried)” value was “Pattern A”, the “Visual observation 50° C.” value is “Clear” and the “Visual observation RT” value is given as “Slurry”. In series [1] (Isopropanol), the “XRPD results (Dried)” value is on record as “Pattern A”, the “Visual observation 50° C.” value is reported as “Clear” and the “Visual observation RT” value is listed as “Clear”. In series [1] (MTBE), the “XRPD results (Dried)” value was “Pattern A”, the “Visual observation 50° C.” value is reported as “Clear” and the “Visual observation RT” value is given as “Slurry”. Moreover, in series [2], the “% remaining at time point in minutes, 0 min” value was 100%; the “% remaining … 15 min” value is reported as 123.2%; the “% remaining … 120 min” value was found to be 73.5%; the “% remaining … 480 min” value is 54.4%. For the same molecule, the “% remaining … 1440 min” value in series [2] is listed as 46.4%. The “Approximate Solubility … Sesame oil” value in series [3] (obs. temp. 25 °C) is reported as >413.5 mg/mL. Further, the “Thermal Gravimetric Analysis, weight loss” value in series [4] was “Weight loss of 0.7244%”.
As to `CCCCCCCCCCCCCCCCOC(=O)Oc1ccc2c3c1O[C@H]1C(=O)CC[C@@]4(O)C(C2)N(CC2CC2)CC[C@]314` [Compound 21, (4aS,7aR,12bS)-3-(cyclopropylmethyl)-4a-hydroxy-7-oxo-2,3,4,4a,5,6,7,7a-octahydro-1H-4,12-methanobenzofuro[3,2-e]isoquinolin-9-yl hexadecyl carbonate], in series [1] (Acetone), the “XRPD results (Dried)” value is given as “Pattern A”, the “Visual observation 50° C.” value is reported as “Clear” and the “Visual observation RT” value is “Slurry”. Also, in series [1] (EtOAc), the “XRPD results (Dried)” value was “Pattern A”, the “Visual observation 50° C.” value is “Clear” and the “Visual observation RT” value was “Slurry”. Besides, in series [1] (Heptane), the “XRPD results (Dried)” value is given as “Pattern A”, the “Visual observation 50° C.” value was “Clear” and the “Visual observation RT” value is “Slurry”. Besides, in series [1] (Isopropanol), the “XRPD results (Dried)” value was “Pattern A”, the “Visual observation 50° C.” value is reported as “Clear” and the “Visual observation RT” value is “Slurry”. Also, in series [1] (MTBE), the “XRPD results (Dried)” value was “Pattern A”, the “Visual observation 50° C.” value is recorded as “Clear” and the “Visual observation RT” value was “Clear”. In addition, in series [1] (setting [5]), the “Comment: stability” value is “stable form. Same crystal form”. Moreover, in series [2], the “% remaining at time point in minutes, 0 min” value is given as 100%; the “% remaining … 15 min” value is 73.5%; the “% remaining … 120 min” value worked out at 68.3%; the “% remaining … 480 min” value was 59.8%. The “% remaining … 1440 min” value in series [2] is on record as 40.9%. The “Approximate Solubility … Sesame oil” value in series [3] (obs. temp. 40 °C) was in the range of 101 to 134.5 mg/mL. Further, the “X-ray Powder Diffraction” value in series [4] (solid state drug substance, XRPD/PLM) was “Crystal Form with partial”.
For the molecule `C=C1CC[C@@]2(O)C3Cc4ccc(OC(=O)OCCCCCCCCCCCCCCCC)c5c4[C@@]2(CCN3CC2CC2)[C@H]1O5` [Compound 19, (4aS,7aS,12bS)-3-(cyclopropylmethyl)-4a-hydroxy-7-methylene-2,3,4,4a,5,6,7,7a-octahydro-1H-4,12-methanobenzofuro[3,2-e]isoquinolin-9-yl hexadecyl carbonate], in series [1] (Acetone), the “XRPD results (Dried)” value is given as “Pattern A”, the “Visual observation 50° C.” value is on record as “Clear” and the “Visual observation RT” value is given as “Slurry”. In series [1] (EtOAc), the “XRPD results (Dried)” value is “Pattern A”, the “Visual observation 50° C.” value is reported as “Clear” and the “Visual observation RT” value is “Slurry”. Further, in series [1] (Heptane), the “XRPD results (Dried)” value is “Pattern A”, the “Visual observation 50° C.” value is listed as “Clear” and the “Visual observation RT” value was “Slurry”. Also, in series [1] (Isopropanol), the “XRPD results (Dried)” value is “Pattern A”, the “Visual observation 50° C.” value was “Clear” and the “Visual observation RT” value is listed as “Slurry”. In series [1] (MTBE), the “XRPD results (Dried)” value is reported as “Pattern A”, the “Visual observation 50° C.” value was “Clear” and the “Visual observation RT” value is on record as “Clear”. For the same molecule, in series [1] (setting [5]), the “Comment: stability” value is reported as “to be stable fomr. Same crystal form”. In addition, in series [2], the “% remaining at time point in minutes, 0 min” value is on record as 100%; the “% remaining … 15 min” value came out at 70.1%; the “% remaining … 120 min” value came to 71.5%; the “% remaining … 480 min” value is 43.8%. Besides, in series [2], the “% remaining … 1440 min” value came out at 33.3%. In addition, in series [4], the “Thermal Gravimetric Analysis, weight loss” value is reported as “Weight loss of 0.1623%”.
